# Molecular target: T1, hTAS1R1 Q278Y/rTAS1R3 (Homo sapiens, UniProt Q7RTX1, Q278Y)
# T1 construct: expressed in transfected cells; host or cells: HEK293T/17 (ATCC CRL-11268)
# T1 sequence (Q7RTX1 21-841 Q278Y): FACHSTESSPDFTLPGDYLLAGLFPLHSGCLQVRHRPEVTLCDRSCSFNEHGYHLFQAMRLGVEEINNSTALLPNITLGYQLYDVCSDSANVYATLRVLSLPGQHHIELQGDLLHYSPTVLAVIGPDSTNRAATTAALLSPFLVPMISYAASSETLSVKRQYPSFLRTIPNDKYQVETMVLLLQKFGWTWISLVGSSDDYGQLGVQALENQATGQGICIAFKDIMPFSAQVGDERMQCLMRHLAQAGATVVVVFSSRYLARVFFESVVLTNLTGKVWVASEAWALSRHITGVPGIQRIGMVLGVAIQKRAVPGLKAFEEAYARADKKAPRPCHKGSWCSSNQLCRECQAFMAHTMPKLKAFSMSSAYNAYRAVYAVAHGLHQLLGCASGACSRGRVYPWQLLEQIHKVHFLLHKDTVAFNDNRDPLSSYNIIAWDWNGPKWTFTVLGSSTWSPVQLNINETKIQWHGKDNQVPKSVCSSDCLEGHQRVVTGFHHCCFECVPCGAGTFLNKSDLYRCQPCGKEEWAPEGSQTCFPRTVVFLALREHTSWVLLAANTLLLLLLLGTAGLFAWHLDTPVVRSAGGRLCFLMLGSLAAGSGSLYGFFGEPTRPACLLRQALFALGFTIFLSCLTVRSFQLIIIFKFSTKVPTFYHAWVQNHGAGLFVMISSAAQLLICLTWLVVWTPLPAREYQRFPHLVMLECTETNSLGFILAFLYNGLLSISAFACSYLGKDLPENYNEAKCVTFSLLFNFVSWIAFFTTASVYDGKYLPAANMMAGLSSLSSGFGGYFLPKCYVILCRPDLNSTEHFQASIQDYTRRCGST
# T1 sequence (Q923K1 21-858 partner): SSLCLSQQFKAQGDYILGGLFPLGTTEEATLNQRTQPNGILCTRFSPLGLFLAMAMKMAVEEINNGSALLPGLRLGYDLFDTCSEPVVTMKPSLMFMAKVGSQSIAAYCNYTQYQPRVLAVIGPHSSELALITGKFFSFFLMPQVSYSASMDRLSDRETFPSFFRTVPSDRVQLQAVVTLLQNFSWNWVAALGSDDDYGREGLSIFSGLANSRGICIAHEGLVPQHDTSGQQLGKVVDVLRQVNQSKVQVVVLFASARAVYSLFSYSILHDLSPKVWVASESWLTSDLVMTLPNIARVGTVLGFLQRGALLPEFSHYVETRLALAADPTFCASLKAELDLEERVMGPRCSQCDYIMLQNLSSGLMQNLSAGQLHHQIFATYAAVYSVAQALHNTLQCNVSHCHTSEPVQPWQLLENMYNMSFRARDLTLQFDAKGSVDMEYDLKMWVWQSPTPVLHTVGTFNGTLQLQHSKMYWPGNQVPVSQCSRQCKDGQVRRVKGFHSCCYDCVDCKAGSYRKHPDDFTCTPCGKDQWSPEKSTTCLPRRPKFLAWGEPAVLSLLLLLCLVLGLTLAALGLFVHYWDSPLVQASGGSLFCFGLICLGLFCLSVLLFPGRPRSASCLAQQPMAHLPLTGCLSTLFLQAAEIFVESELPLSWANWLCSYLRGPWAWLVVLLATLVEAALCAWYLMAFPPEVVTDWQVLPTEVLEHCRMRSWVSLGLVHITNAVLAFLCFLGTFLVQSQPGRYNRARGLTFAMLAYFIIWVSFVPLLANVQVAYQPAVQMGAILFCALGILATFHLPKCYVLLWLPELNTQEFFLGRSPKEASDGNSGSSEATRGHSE
# Test: Calcium assay, hTAS1R1 mutant co-expressed with rTAS1R3
# Format: cell-based, rat
"response to the agonist alone, vs WT (Q278Y)",Structure (SMILES),EC50,effect of the added compound (1 mM) on the response to L-Glu (Q278Y),"Max ∆F/F0 (Q278Y, GSH)","R1 = mutant EC50/WT EC50 (Q278Y, GSH)"
,"N[C@@H](CCC(=O)N[C@@H](CS)C(=O)NCC(=O)O)C(=O)O [GSH, γ-L-glutamyl-L-cysteinyl-glycine]",3.96 ± 1.76 mM,synergy was observed,0.47 ± 0.07,1.6
strongly affected,"CCCC(CCC)NC(=O)c1ccc2c(c1)OCO2 [S807, N-(heptan-4-yl)benzo[d][1,3]dioxole-5-carboxamide, reference compound]",,,,
